Test results from PMC10005222, “Development of a Novel Apigenin Dosage form as a Substitute for the Modern Triple Antithrombotic Regimen” (Molecules, 2023).

Columns and labels:
[1] = Serum pharmacokinetics after oral administration in C57BL/6J mice; type: in vivo; conditions: oral 50 mg/kg in olive oil; for Tmax / half-life / AUC(0-t) / Vd/F / Cmax / AUC(0-inf): male, mouse; for AUC(0-t): 0-6 h, read-out: AUC0−t, Estimate (%CV); for Vd/F / Cl/F: normalized to fraction absorbed; for Vd/F: read-out: Vz/F; for Cmax: read-out: Cmax, Estimate (%CV); for AUC(0-inf): to be considered with caution (high extrapolation); for AUC % extrapolated: based on λz, 50 mg/kg
Description: For the detection of the conjugate, the EVOQ Elite ER TQ (Bruker) mass spectrometer was operated in negative ionization electrospray mode (ESI) under multiple reaction monitoring (MRM). […] Optimum ESI conditions were determined as follows: spray voltage, 4500 V; heated probe gas flow, 50 units; heated probe temperature 350℃; cone gas flow, 20 units; cone temperature, 200 °C; nebulizer gas flow, 40 units. Total control of LC and MS, as well as data acquisition, were performed with MSWS software, Version 8.2.1 (Bruker). For the pharmacokinetic studies, a Xevo-G2-XS-QtoF mass spectrometer, coupled to a Waters UPLC I-Class Binary Solvent Manager (Waters Corp., Milford, MA, USA) was used. The mobile phases were composed of water (LC-MS grade) with formic acid 0.1% (A), and acetonitrile (LC-MS grade) with formic acid 0.1% (B). A constant flow of […] was used, with an injection volume of 1 μL; the gradient was as follows: initial phase (B) concentration 20%, increased to 100% within 1.5 min, then kept constant for 1 min, and reduced to 20% until the end of the run (4 min total runtime). The MS conditions were as follows: the scan range was set at m/z 100–600, and the source voltage was 0.8 Kv in negative ionization electrospray mode (ESI). The source temperature was 550 °C, the flow of desolvation gas (N2) was set to 1000 L per hour, and the cone gas flow was set to 20 L per hour. For MS/MS, the collision energy ramp was set from 20 eV to 40 eV, and the declustering potential was 40 V. The column used was the Acquity UPLC® BEH C18 1.7 µm device. For the post processing and analysis of the acquisition data, UNIFY soFTware was used.
60 male 8-week-old C57BL/6J wild type mice, with mean weight equal to 23.5 ± 2.1 g were randomly divided in two groups (a, b) of 30 and each one received different treatment as follows: (a) the apigenin hybrid formulation and (b) the parent apigenin, dissolved in extra virgin olive oil, orally via the gavage technique at the dose of 50 mg/kg. Mice in each group were randomly further divided in 6 subgroups of five, each group representing one sampling time point (15, 30, 60, 120, 240, and 360 min). Animals were anaesthetized with sevoflurane, and sacrificed to collect blood samples via cardiac puncture, in non-heparinized Eppendorf ® Tubes, at the time point of interest after administration. Blood samples were centrifuged (10,000× g rpm, 15 min, 4 °C), and serum was collected, frozen and stored at −70 °C until further processing. In order to quench the reactions, 395 μL of MeOH were added to each sample, along with IS (5 μL of Rosmarinic acid). The samples were vortexed and centrifuged at 10,000× g for 10 min. Then, the supernatant was taken, filtered and transferred to vials for analysis, as described above.
The Phoenix^TM (www.certara.com)®. software was used for data analysis using non-compartmental PK analysis (NCA). More specifically, sparse sampling NCA was performed to determine basic serum PK parameters, namely AUC0−t, AUCinf, Cmax and Tmax, and to calculate the relative oral bioavailability of apigenin after apigenin hybrid formulation and native apigenin oral administration. To calculate the PK parameters and their standard errors (SE), the mean concentration curve is calculated and used in conjunction with the available subject information. The log-linear trapezoidal method was used to calculate AUC0−t and AUCinf, with extrapolation to infinity by dividing the last concentration by the terminal slope, λz (kel, estimated by linear regression analysis on the last three points of the log-transformed concentration vs. time plot).

[2] = system: TRAP-6-induced platelet aggregation; experiment: TRAP-6-induced platelet aggregation in PRP (light transmittance aggregometry); type: cell-based, human; conditions: for IC50: Homo sapiens, TRAP-6 10 μM, PRP, 1 min pre-incubation, mean ± SD, three platelet preparations; for enhanced inhibitory activity with respect to DHA: TRAP-6 induced platelet aggregation
Description: (§1) The antiplatelet activity of DHA-apigenin, apigenin, DHA, and equimolar solution of apigenin/DHA was studied in platelet rich plasma (PRP) by light transmittance aggregometry (LTA) assay, as previously described. Briefly, PRP was prepared from peripheral venous blood of apparently healthy normolipidemic volunteers. The platelets of PRP were adjusted to a final concentration of 2.5 × 10^8 per Ml with homologous platelet-poor plasma (PPP). The PRP was then pre-incubated with each one of the compounds for 1 min before the initiation of aggregation. The final DMSO concentration in each assay was <0.5% (v/v). In the control experiments, the PRP was incubated with each one of the compounds for 5 min in order to evaluate whether each tested compound was a platelet activator. Platelet aggregation induced by ADP (10 Μm), AA (500 Μm), and TRAP-6 (10 Μm) was determined in aliquots of 0.5 Ml of PRP, at 37 °C under continuous stirring at 1200 rpm, in a Chronolog Lumi-Aggregometer (model 700 4-channel) equipped with the AggroLink software package. The maximal aggregation, achieved within 4 min after the addition of each agonist, was determined and expressed as a percentage of 100% light transmission calibrated for each specimen (maximal percentage of aggregation; MPA). Τhe inhibitory efficacy of each compound tested was also expressed as IC50 values (concentration that induces 50% inhibition of platelet aggregation). All aggregation studies were conducted within 3 h after blood was drawn. The inhibition of platelet aggregation (IPA) values induced by each compound was calculated using the […].

[3] = system: ADP-induced platelet aggregation; experiment: ADP-induced platelet aggregation in PRP (light transmittance aggregometry); type: cell-based, human; conditions: for IC50: Homo sapiens, ADP 10 μM, PRP, 1 min pre-incubation, mean ± SD, three platelet preparations
Description: as §1

[4] = system: AA-induced platelet aggregation; experiment: AA-induced platelet aggregation in PRP (light transmittance aggregometry); type: cell-based, human; conditions: for IC50: Homo sapiens, AA 500 μM, PRP, 1 min pre-incubation, mean ± SD, three platelet preparations
Description: as §1

[5] = Human plasma stability assay (LC-MS/MS); type: in vitro ADME; conditions: 37 °C
Description: Liquid chromatography was performed using an Advance Ultra High Performance Liquid Chromatography (UHPLC) system (Bruker, Germany). The column oven was set at 40 °C. For the separation, a Kinetex C18 column 100 mm × 2.1 mm, 2.6 μm, with a 2.1 mm pro-guard column, was used (Phenomenex). The mobile phases were composed of water (LC-MS grade) with formic acid 0.1% (A) and MeOH (B). The gradient followed at a constant flow of […] was: initial phase (B) concentration 5%, increased to 100% within 1 min, then kept constant for 5.5 min, and reduced to 5% until the end of the run. […] The injection volume was 2 μL, while the auto-sampler temperature was 15 °C.
For the detection of the conjugate, the EVOQ Elite ER TQ (Bruker) mass spectrometer was operated in negative ionization electrospray mode (ESI) under multiple reaction monitoring (MRM). […] Optimum ESI conditions were determined as follows: spray voltage, 4500 V; heated probe gas flow, 50 units; heated probe temperature 350℃; cone gas flow, 20 units; cone temperature, 200 °C; nebulizer gas flow, 40 units. Total control of LC and MS, as well as data acquisition, were performed with MSWS software, Version 8.2.1 (Bruker). […]
The in vitro stability of the apigenin molecular hybrid was evaluated in human plasma (Ph was adjusted to 7.4) at 37 °C. […]

[6] = ADP-induced platelet aggregation

| SMILES | Tmax [1] | half-life [1] | AUC(0-t) [1] | Vd/F [1] | Cmax [1] | AUC(0-inf) [1] | Cl/F [1] | IC50 [2] | IC50 [3] | IC50 [4] | also measured |
| --- | --- | --- | --- | --- | --- | --- | --- | --- | --- | --- | --- |
| CC/C=C\C/C=C\C/C=C\C/C=C\C/C=C\C/C=C\CCC(=O)Oc1ccc(-c2cc(=O)c3c(O)cc(O)cc3o2)cc1 [4′-DHA-apigenin hybrid, 4′-DHA-apigenin] | 2 h | 17.4 h | 91.7 ng·h/mL | 66.5 L | 17.8 ng/mL | 471 ng·h/mL | 2.65 L/h | 52 ± 12 µM | 362 ± 20 µM | 353 ± 36 µM | AUC % extrapolated ([1]; listed as 4′-DHA-Apigenin): 80%; AUC % extrapolated ([1]; listed as 4′-DHA-apigenin): 80.5%; enhancement with respect to native apigenin ([2]; TRAP-6): 2 fold; enhanced inhibitory activity with respect to DHA [2]: more than 12 fold; enhanced inhibitory activity with respect to DHA ([2]; listed as 4′-DHA-apigenin): 12 fold; enhanced inhibitory activity with respect to DHA [3, 6]: ~3 fold; enhanced inhibitory activity with respect to apigenin [3, 6]: ~2 fold; enhanced inhibitory activity with respect to apigenin ([4]; AA-induced platelet aggregation): 2 fold; parent compound still present ([5]; after 30 min of incubation): 17.3%; half-life at 5 µM ([5]; pH 7.4, read-out: t1/2 in human plasma): ~0.217 h |
| O=c1cc(-c2ccc(O)cc2)oc2cc(O)cc(O)c12 [Apigenin, apigenin] | 2 h | 3.44 h | 35 ng·h/mL | 106 L | 10.8 ng/mL | 58.8 ng·h/mL | 21.3 L/h | 56 ± 8 µM | 607 ± 35 µM | 850 ± 45 µM | AUC % extrapolated [1]: 40%; AUC % extrapolated ([1]; listed as native apigenin): 40.5% |
| CC/C=C\C/C=C\C/C=C\C/C=C\C/C=C\C/C=C\CCC(=O)O [DHA, Cis-4,7,10,13,16,19-Docosahexanoic acid, reference compound] |  |  |  |  |  |  |  | 680 ± 42 µM | 920 ± 53 µM | 130 ± 18 µM |  |
